The values that follow come from patent US20180318279A1 (priority 2015, published 2018).

Structures are written as SMILES.

The conditions of series [1]: in vivo; cited from earlier work.
The subject of another series is injured hind paw. The settings on record: rat, in vivo; cited from earlier work.
A short description of series [2]: Skin permeation with human abdominal cadaver skin and absorption estimates drawn from it. To be noted: assuming 3.8 fold increase in drug delivery.

Turning to `CN(C)C(=O)C(CCN1CCC(O)(c2ccc(Cl)cc2)CC1)(c1ccccc1)c1ccccc1` [loperamide, 4-[4-(4-Chlorophenyl)-4-hydroxypiperidin-1-yl]-N,N-dimethyl-2,2-diphenylbutanamide], in series [1], the “half-life, rapid phase one” value is 2.3 h and the “half-life, slow phase two” value is 23 h. Further, in the series with injured hind paw, the antinociception result was “rapid dose-dependent antinociception”. Also, the “estimated increased penetration with damaged stratum corneum” value in series [2] is 0.057 mg.
As to `CN1CC[C@]23c4c5ccc(O)c4O[C@H]2[C@@H](O)C=C[C@H]3[C@H]1C5` [morphine], the “systemic effects following topical application” value with injured hind paw was “revealed systemic effects”.
